Patent US20240368150A1 (Hoffmann-La Roche Inc., priority 2021, published 2024)
Like-named read-outs stand apart in the source and are kept apart here.

Legend:
[1] = tested on: primary human T-cells; assay: Proliferation assay after 5 days (CellTiter-Glo, CD3 stimulation; PBS counter screen); format: cell-based; conditions: Homo sapiens, T-cell, 120 h; for Emax: read-out: Emax proliferation (% activation); for EC50: read-out: Tcell Proliferation CD3 EC50
Summary of the method: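 Proliferation is measured 5 days post-treatment as ATP-dependent luminescence. Flags mark compounds that activated unstimulated cells or harmed viability.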

[2] = tested on: primary human T-cells
[3] = CD3 stimulation, 5 days, normalized to reference compound A1 as stimulator control = 100%, DMSO neutral control
[4] = primary human T-cells, CD3 stimulation, CellTiter-Glo after 5 days, EC50 of fitted sigmoidal curve

EC50 [2] | SMILES | Emax [1, 3] | EC50 [1, 4] | Emax [1] | EC50 [1]
3200 nM | N[C@H]1CS(=O)(=O)c2ccc(-c3nnc(-c4ccccc4F)o3)cc2N(Cc2ccc(Cl)cc2)C1=O [Example 376, (3R)-3-amino-5-[(4-chlorophenyl)methyl]-7-[5-(2-fluorophenyl)-1,3,4-oxadiazol-2-yl]-1,1-dioxo-2,3-dihydro-1λ^6,5-benzothiazepin-4-one] | 70% | 4460 nM |  | 
1720 nM | Cc1ccc(-c2nnc(-c3ccc4c(c3)N(Cc3ccc(Cl)cc3)C(=O)[C@@H](N)CS4(=O)=O)o2)cc1 [Example 377, (3R)-3-amino-5-[(4-chlorophenyl)methyl]-1,1-dioxo-7-[5-(p-tolyl)-1,3,4-oxadiazol-2-yl]-2,3-dihydro-1λ^6,5-benzothiazepin-4-one] | 38% | 319 nM |  | 
> 10000 nM | COC1(c2nnc(-c3ccc4c(c3)N(Cc3ccc(Cl)cc3)C(=O)[C@@H](N)CS4(=O)=O)o2)CCC(F)(F)CC1 [Example 378, (3R)-3-amino-5-[(4-chlorophenyl)methyl]-7-[5-(4,4-difluoro-1-methoxy-cyclohexyl)-1,3,4-oxadiazol-2-yl]-1,1-dioxo-2,3-dihydro-1λ^6,5-benzothiazepin-4-one] | 74% | 447 nM |  | 
819 nM | [2H]C([2H])([2H])C(c1nnc(-c2ccc3c(c2)N(Cc2ccc(Cl)cc2)C(=O)[C@@H](N)CS3(=O)=O)o1)(C([2H])([2H])[2H])C([2H])([2H])[2H] [Example 380, (3R)-3-amino-5-[(4-chlorophenyl)methyl]-1,1-dioxo-7-[5-[2,2,2-trideuterio-1,1-bis(trideuteriomethyl)ethyl]-1,3,4-oxadiazol-2-yl]-2,3-dihydro-1λ^6,5-benzothiazepin-4-one] | 132% | 613 nM |  | 
1680 nM | CC1(c2nnc(-c3ccc4c(c3)N(Cc3ccc(Cl)cc3)C(=O)[C@@H](N)CS4(=O)=O)o2)CCN(C(=O)OCC(F)(F)F)CC1 [Example 382, 2,2,2-trifluoroethyl 4-[5-[(3R)-3-amino-5-[(4-chlorophenyl)methyl]-1,1,4-trioxo-2,3-dihydro-1λ^6,5-benzothiazepin-7-yl]-1,3,4-oxadiazol-2-yl]-4-methyl-piperidine-1-carboxylate] | 100% | 893 nM |  | 
895 nM | CN1CC(c2nnc(-c3ccc4c(c3)N(Cc3ccc(Cl)cc3)C(=O)[C@@H](N)CS4(=O)=O)o2)CC(F)(F)C1 (stereo partly drawn) [Example 385, (3R)-3-amino-5-[(4-chlorophenyl)methyl]-7-[5-(5,5-difluoro-1-methyl-3-piperidyl)-1,3,4-oxadiazol-2-yl]-1,1-dioxo-2,3-dihydro-1λ^6,5-benzothiazepin-4-one] | 106% | 1490 nM |  | 
2280 nM | N[C@H]1CS(=O)(=O)c2ccc(-c3nnc(C4CC5(CC(O)C5)C4)o3)cc2N(Cc2ccc(Cl)cc2)C1=O (stereo partly drawn) [Example 387, (3R)-3-amino-5-[(4-chlorophenyl)methyl]-7-[5-(2-hydroxyspiro[3.3]heptan-6-yl)-1,3,4-oxadiazol-2-yl]-1,1-dioxo-2,3-dihydro-1λ^6,5-benzothiazepin-4-one] | 157% | 1120 nM |  | 
331 nM | COC(F)(c1nnc(-c2ccc3c(c2)N(Cc2ccc(Cl)cc2)C(=O)[C@@H](N)CS3(=O)=O)o1)C(F)(F)F (stereo partly drawn) [Example 388, (3R)-3-amino-5-[(4-chlorophenyl)methyl]-1,1-dioxo-7-[5-(1,2,2,2-tetrafluoro-1-methoxy-ethyl)-1,3,4-oxadiazol-2-yl]-2,3-dihydro-1λ^6,5-benzothiazepin-4-one] | 129% | 166 nM |  | 

SMILES | EC50 [2] | Emax [1, 3] | EC50 [1, 4] | Emax [1] | EC50 [1]
Cc1ccc(OC(=O)N2CCC(C)(c3nnc(-c4ccc5c(c4)N(Cc4ccc(Cl)cc4)C(=O)[C@@H](N)CS5(=O)=O)o3)CC2)cn1 [Example 383, (6-methyl-3-pyridyl) 4-[5-[(3R)-3-amino-5-[(4-chlorophenyl)methyl]-1,1,4-trioxo-2,3-dihydro-1λ^6,5-benzothiazepin-7-yl]-1,3,4-oxadiazol-2-yl]-4-methyl-piperidine-1-carboxylate] | 857 nM |  |  | 94% | 1320 nM
